Columns and labels:
[1] = Slurry conversion of mixed anhydrous Form I and Form II in MTBE:water (95:5); format: physicochemical; conditions: equal amounts Form I and Form II, room temperature, three days
Procedure: Equal amounts (˜50 mg) of anhydrous Form I and anhydrous Form II were weighed out and physically mixed in a vial with a spatula. A solution of MTBE:water (95:5) was added to this solid mixture and stirred to form a suspension. The suspension was stirred at room temperature for three days and filtered through a filter paper. The solid residue was allowed to dry under ambient conditions and analyzed with powder X-ray diffractometry and DSC.

[2] = Dynamic moisture sorption (DMS) assessment; format: physicochemical; conditions: for crystalline form after the DMS experiment (by PXRD, DSC, TGA): 5% RH to 90% RH adsorption/desorption, 25° C.; for moisture picked up during the adsorption segment (DMS): 5% RH to 90% RH, isothermal 25° C., desorption matches adsorption, no hysteresis
Procedure: Dynamic moisture sorption (DMS) measurements were performed for each crystalline form using a VTI atmospheric microbalance, SGA-100 system (VTI Corp., Hialeah, Fla. 33016). A weighed sample was used and the humidity was set at the ambient value at the start of the analysis. The DMS analysis consisted of a scan rate of 5% RH/step over the full humidity range of 5% relative humidity (RH) to 90% RH. The DMS run was performed isothermally at 25° C.

SMILES: CS(=O)(=O)C[C@@H](Oc1ccc(C(F)(F)F)cc1)[C@H]1CCNC1 [anhydrous Form I, (S)-3-[(S)-2-methanesulfonyl-1-(4-trifluoromethylphenoxy)ethyl]pyrrolidine]
- anhydrous Form II content of the filtered solid (PXRD) [1]: > 95%
- form conversion under slurry conditions [1]: converted to anhydrous Form II
- crystalline form after the DMS experiment (by PXRD, DSC, TGA) [2]: converted to the monohydrate form
- moisture uptake between 60% RH and 65% RH (DMS adsorption segment) ([2]; gradual uptake until 60% RH, isotherm flat 65% RH to 90% RH, moisture not lost on desorption): rapid

SMILES: CS(=O)(=O)C[C@@H](Oc1ccc(C(F)(F)F)cc1)[C@H]1CCNC1 [monohydrate, (S)-3-[(S)-2-methanesulfonyl-1-(4-trifluoromethylphenoxy)ethyl]pyrrolidine]
- crystalline form after the DMS experiment (by PXRD, DSC, TGA) [2]: remains as the monohydrate form
- moisture picked up during the adsorption segment (DMS) [2]: less than 1 % by weight

SMILES: CS(=O)(=O)C[C@@H](Oc1ccc(C(F)(F)F)cc1)[C@H]1CCNC1 [anhydrous Form II, (S)-3-[(S)-2-methanesulfonyl-1-(4-trifluoromethylphenoxy)ethyl]pyrrolidine]
- crystalline form after the DMS experiment (by PXRD, DSC, TGA) [2]: remains as Form II
- moisture picked up during the adsorption segment (DMS) [2]: less than 1 % by weight

Reference: patent US8969403B2, “Crystalline forms of a 3-[2-methanesulfonyl-1-(4-trifluoromethyl-phenoxy)ethyl]pyrrolidine compound” (Theravance Biopharma R&D IP, LLC, priority 2011, dated 2015)
